Source: publication PMC10525132, “Potent Antioxidant and Anti-Tyrosinase Activity of Butein and Homobutein Probed by Molecular Kinetic and Mechanistic Studies” (Antioxidants, 2023)

Columns and labels:
[1] = Inhibited autoxidation of methyl linoleate in Triton X-100 micelles (O2 uptake kinetics); settings: for n (stoichiometric factor of peroxyl radical trapping): MeLin/Triton X-100 micelles
Description: Autoxidation studies were performed as previously described, with slight modifications. In a typical experiment, 2.5 mL of air-saturated buffered (PBS, 50 mM, pH 7.4) aqueous dispersion of MeLin (final concentration 2.74 mM) in Triton™ X-100 (final concentration 16 mM) micelles were prepared by vortex mixing. A fresh stock solution of AAPH was added (final concentration 2.5 mM), immediately followed by addition (5–30 μL) of a stock solution of the antioxidant in acetonitrile (final concentration of 1–20 μM) and by additional vortex mixing (5 s). The mixture was sealed in a 2 mL glass vial provided with a PTFE-coated stirring bar and capped with the O2 sensor. The sample was equilibrated at 37 °C in a thermostatted bath equipped with a sealed magnetic stirrer, and oxygen concentration was monitored with time as previously described. Oxygen consumption in the absence of antioxidants was compared with that recorded in the presence of butein, homobutein, or α-tocopherol (α-TOH) as the reference antioxidant. […]. The stoichiometric factor n was determined from the length of the inhibited period τ by Equation (3). The rate of initiation Ri was determined in preliminary experiments using α-TOH as the inhibitor (n = 2) by Equation (3). (1) −d[O2]/dt=kp[RH]Ri/nkinh[AH]+Ri (2) R0/Rinh−Rinh/R0=nkinh[AH]/2ktRi (3) n=Riτ/[AH]
To study the antioxidant activity of butein and homobutein on quantitative grounds, we performed inhibited autoxidation studies using biomimetic neutral micelles of methyl linoleate (MeLin) in aqueous Triton™ X-100 (with 50 mM PBS, pH 7.4, 37 °C), since it is a well-validated model we and others used in previous studies. The reaction kinetics was followed by monitoring oxygen consumption via miniaturized NIR-fluorescence-quenching O2 probes, according to a previously validated protocol, both in the absence and in the presence of different concentrations of butein or homobutein. The reaction was initiated thermally in the aqueous phase by the controlled decomposition of the azo compound AAPH so as to clearly distinguish the chain-breaking mechanism from other efficacies based on interference with the initiation process (e.g., the Fenton reaction by metal chelation) and α-TOH was used as the reference antioxidant.

[2] = molecular target: T1, mushroom tyrosinase (mTYR) (Agaricus bisporus, UniProt C7FF04); settings: previous report, cited from earlier work
T1 construct: purchased Sigma-Aldrich (Milan, Italy)

[3] = molecular target: T1, mushroom tyrosinase (mTYR); settings: cited from earlier work
[4] = tested on: mTYR; assay: Stability toward air and mTYR, oxygen consumption; settings: 0.1 mM, pH 6.8, 30 °C, axes [O2] M vs Time / s
[5] = AAPH (2.5 mM) initiated autoxidation of MeLin/Triton X-100 micelles, 37 °C, pH 7.4
[6] = MeLin in Triton X-100 micelles, pH 7.4, 37 °C

T1 sequence (C7FF04 1-392): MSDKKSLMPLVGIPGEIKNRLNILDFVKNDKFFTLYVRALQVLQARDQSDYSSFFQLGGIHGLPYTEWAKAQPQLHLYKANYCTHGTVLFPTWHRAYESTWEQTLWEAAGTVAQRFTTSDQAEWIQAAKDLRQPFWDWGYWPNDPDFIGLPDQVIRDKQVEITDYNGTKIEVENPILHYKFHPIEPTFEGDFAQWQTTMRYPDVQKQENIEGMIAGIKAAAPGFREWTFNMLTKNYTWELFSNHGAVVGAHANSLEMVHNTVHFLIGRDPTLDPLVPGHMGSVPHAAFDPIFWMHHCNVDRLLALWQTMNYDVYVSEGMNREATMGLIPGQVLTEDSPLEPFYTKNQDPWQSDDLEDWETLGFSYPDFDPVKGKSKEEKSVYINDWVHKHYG

SMILES	kinh (inhibition rate constant) [1, 5]	kinh (inhibition rate constant) [1, 6]	kinh (inhibition rate constant) ([1]; MeLin in Triton X-100 micelles, pH 7.4, 37 °C, listed as butein) [M⁻¹ s⁻¹]	n (stoichiometric factor of peroxyl radical trapping) ([1]; 37 °C, pH 7.4)	n (stoichiometric factor of peroxyl radical trapping) ([1]; 37 °C, pH 7.4, listed as butein)	Ki ([2]; monophenolase, competitive) [µM]	inhibition mode, monophenolase [2]	effect toward diphenolase reaction (reported) [3]	diphenolase inhibition (reported effect) ([3]; even at concentrations > 100 µM)	oxygen consumption, zero order regression slope b[1] ([4]; with tyrosinase 7 U/ml)	oxygen consumption, zero order regression slope b[1] ([4]; without enzyme)	kinh (inhibition rate constant) ([1]; MeLin in Triton X-100 micelles, pH 7.4, 37 °C, listed as homobutein) [M⁻¹ s⁻¹]
O=C(/C=C/c1ccc(O)c(O)c1)c1ccc(O)cc1O [Butein, (E)-1-(2,4-dihydroxyphenyl)-3-(3,4-dihydroxyphenyl)prop-2-en-1-one]	29.8 ± 9.2 10^3 M^−1s^−1	(3.0 ± 0.9) × 10^4 M^−1s^−1	30000	3.7 ± 1.1	3.7	1410	competitive	ineffective	poorly effective	-2.789e-9	-1.989e-9	–
COc1cc(/C=C/C(=O)c2ccc(O)cc2O)ccc1O [Homobutein, (E)-1-(2,4-dihydroxyphenyl)-3-(4-hydroxy-3-methoxyphenyl)prop-2-en-1-one]	2.8 ± 0.9 10^3 M^−1s^−1	(2.8 ± 0.9) × 10^3 M^−1s^−1	–	–	–	–	–	–	–	-3.664e-9	-2.859e-9	2800
